# In patent US8252520B2, “Methods and compounds for inhibiting Hec1 activity for the treatment of proliferative diseases” (Taivex Therapeutics Corporation, priority 2002, dated 2012):
# “Also recorded” adds a separate entry of the source.
# Key:
# Type in all cases: cell-based
# [1] = system: RB-reconstituted Saos2 cells (SR5); test: cell killing, trypan blue exclusion, RB-reconstituted Saos2 cells; settings: 10 μM, 60 hours
# Description: (§1) FIG. 15. Differential effect of INH1 in Rb positive and negative osteosarcoma Saos2 cells. Cells grown in log-phase were either untreated or treated with 0.08% DMSO or INH1 at the indicated concentrations for 60 hours. Surviving cells were counted by trypan blue exclusion and expressed as a percentage of the control. SR5 is a Rb reconstituted Saos-2 cell line. The values were the average of a triplicate set of experiments, with error bars representing the SEM.
# HeLa cells [2] = test: colony formation assay in HeLa cells; settings: 12 days treatment, INH1 compared with INH2
# Description: FIG. 12. Effects of INH1 and INH2 on colony formation of HeLa cells. Exponentially grown cells were seeded at 800 cells per 10-cm dish for 24 h and treated with indicated concentrations of INH1 (MW: 308.41; also referred to herein as IBT 13131; see FIG. 17), INH2 (MW 382.49; also referred to herein as IBT 14664; see FIG. 17), or control (DMSO less than 0.1%) for 12 days. The colonies were fixed and stained with methylene blue and counted. The values were averaged from a triplicate set of experiments, and error bars represent the SEM.
# (§2) To determine whether the identified compounds would have the same effect in mammalian cells, we used HeLa cells to test the effects of these compounds in a small-scale experiment. […] These two compounds were named INH1 and INH2 (INH1, MW: 308.41; also referred to herein as IBT 13131; see FIG. 16; INH2, MW 382.49; also referred to herein as IBT 14664; see FIG. 16).
# [3] = system: parental (RB-negative) Saos2 cells; test: cell killing, trypan blue exclusion, parental Saos2 cells; settings: 10 μM, 60 hours
# Description: as §1
# [4] = target: T1, interaction between Hec1 and Nek2 (Homo sapiens, UniProt O14777); test: co-immunoprecipitation of Nek2 with Hec1 from treated HeLa cells; settings: 10 and 20 μM, 24 hours
# T1 construct: endogenous in cells; host or cells: HeLa cells
# T1 sequence (O14777 1-642): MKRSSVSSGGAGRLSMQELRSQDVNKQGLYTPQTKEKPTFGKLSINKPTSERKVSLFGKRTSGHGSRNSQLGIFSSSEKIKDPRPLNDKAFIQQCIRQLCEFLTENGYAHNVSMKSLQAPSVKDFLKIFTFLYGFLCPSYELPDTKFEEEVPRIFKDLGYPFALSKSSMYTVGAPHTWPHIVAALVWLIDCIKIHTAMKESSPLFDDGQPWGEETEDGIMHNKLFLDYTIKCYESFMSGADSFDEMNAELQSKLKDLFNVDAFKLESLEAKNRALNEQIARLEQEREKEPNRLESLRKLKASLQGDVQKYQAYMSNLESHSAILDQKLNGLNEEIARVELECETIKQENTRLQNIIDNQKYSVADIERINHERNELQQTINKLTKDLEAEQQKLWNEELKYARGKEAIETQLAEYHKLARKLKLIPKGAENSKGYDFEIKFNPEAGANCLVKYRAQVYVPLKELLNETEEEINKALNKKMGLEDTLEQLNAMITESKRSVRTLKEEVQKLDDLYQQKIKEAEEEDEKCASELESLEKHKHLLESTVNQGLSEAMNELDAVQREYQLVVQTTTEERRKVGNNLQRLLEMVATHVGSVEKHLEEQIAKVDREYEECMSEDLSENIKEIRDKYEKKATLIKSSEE
# Description: FIG. 13A. Dissociation of Hec1 and Nek2 in INH1I-treated cells. HeLa cells were grown in log-phase and treated with 0.08% DMSO or with the indicated concentration of INH1 for 24 hours. Cells were harvested for immunoprecipitation with the anti-Hec1 antibody mAb 9G3. The immunoprecipitates were analyzed by western blot with either mAb 9G3 or anti-Nek2 antibodies. […] Fractions of lysates were taken for straight western blot with anti-Rad50 antibodies as a loading control.
# (§3) We performed a co-immunoprecipitation assay using cells treated with INH1 or INH2 to test whether these compounds disrupt the interaction between Hec1 and Nek2. […] Similarly, we examined whether Nek2 phosphorylation of Hec1 is diminished in the cells treated with these drugs by Western blotting with […], which recognizes specifically the phosphorylated S165 of Hec1.
# HeLa cells [5] = test: flow cytometric (FACS) analysis of treated HeLa cells; settings: 5 or 10 μM, 72 hrs
# Description: FIG. 14B. Flow cytometric analysis of INH1 treated HeLa cells. Exponentially grown HeLa cells were seeded at 5×10^5 cells per 10-cm dish for 24 hrs and then treated with DMSO (control) or 5 or 10 μM of INH1 for 72 hrs. Cells were harvested and fixed in 70% ethanol for flow cytometry after staining with propidium iodide. Data represent one of three independent experiments.
# HeLa cells [6] = test: microscopy of H2B-GFP labeled HeLa cells (chromosome segregation); settings: 10 mM of INH1 (FIG. 14A)
# Description: FIG. 14A. Micrographic pictures of H2B-GFP labeled HeLa cells treated with DMSO (Mock) or 10 mM of INH1. White arrows indicate lagging chromosomes during M phase.
# HeLa cells [7] = test: small-scale killing of dividing HeLa cells; settings: dose of 20 (unit not given)
# Excerpt: as §2
# [8] = system: Nek2 phosphorylation of Hec1 at S165; test: Western blot of Hec1 S165 phosphorylation (anti-A439) in treated HeLa cells; settings: 20 μM, 36 hours
# Description: HeLa cells (lane 1) were treated with 0.08% DMSO (lane 2), 20 μM of INH1 (lane 3), INH2 (lane 4) or nocodazole (lane 5) for 36 hours before cells were harvested for immunoblotting with anti-Hec1, mAb9G3, for total Hec1 protein or anti-A439 for the phosphorylated Hec1 at S165 (pHEC1). Nek2 phosphorylation of Hec1 is undetectable in INH1 and INH2 treated cells (lanes 3 and 4).
# as §3
Compound,cells killed [1],killing activity by colony formation (HeLa cells [2]),cells killed [3],Nek2 co-precipitated with anti-Hec1 antibodies [4],Nek2 co-precipitated with anti-Hec1 antibodies ([4]; listed as INH 1),cell death by FACS analysis (HeLa cells [5]),chromosome segregation phenotype (HeLa cells [6]),activity in killing dividing cells (HeLa cells [7]),Nek2 phosphorylation of Hec1 (S165) [8]
Cc1ccc(-c2csc(NC(=O)c3ccccc3)n2)c(C)c1 [INH1],< 5%,significant higher killing activity,more than 50%,very little or no Nek2 protein,Nek2 failed to be co-immunoprecipitated with Hec1,led to cell death,generated chromosome missegregations,significant activity,abolished; also recorded: undetectable
INH2,–,–,–,–,–,–,–,significant activity,abolished; also recorded: undetectable
